Among the test systems are HCT-15 colon; MALME-3M melanoma; BT-549 breast; SW-620 colon; COLO 205 colon; UACC-62 melanoma; KM12 colon; MOLT-4 leukemia; EKVX NSCLC; HOP-92 NSCLC.
Common to all, as to assay: NCI-60 cell line screen, 48 h

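Assay format: 96-well plates, 48-hour exposure. Abbreviation: GI50, concentration required for 50% inhibition of growth. Definition used: TGI = concentration required for complete inhibition of growth.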

Turning to `CCS(=O)(=O)c1ccc(OC)c(Nc2ncc(-c3cccc(OC)c3)o2)c1`, the GI50 with HCT-15 colon is 10.6 µM; with MALME-3M melanoma it was > 25 µM; in the assay with BT-549 breast, 14.6 µM; with SW-620 colon, 9.09 µM; in the assay with COLO 205 colon, 10.3 µM; in the assay on UACC-62 melanoma, 9.52 µM. Moreover, the GI50 with KM12 colon is 1.06 µM; with MOLT-4 leukemia it was 13.5 µM; in the assay with EKVX NSCLC, 18.9 µM; in the assay with HOP-92 NSCLC, 2.76 µM. Moreover, the TGI with HCT-15 colon, with MALME-3M melanoma, with BT-549 breast, with SW-620 colon, with COLO 205 colon and in the assay with UACC-62 melanoma was > 25 µM in each case. The TGI in the assay with KM12 colon is > 25 µM; in the assay on MOLT-4 leukemia it was > 25 µM; in the assay on EKVX NSCLC it was > 25 µM; in the assay on HOP-92 NSCLC it was 9.17 µM.
On to `CCC#CC[C@H]1C/C=C2/C(=O)C=C[C@@H]2C/C=C\CCCC(=O)O1`, for which the GI50 in the assay on HCT-15 colon is 0.67 µM; with MALME-3M melanoma, 1.13 µM; with BT-549 breast it was 1.11 µM; in the assay on SW-620 colon, 0.642 µM; with COLO 205 colon, 0.961 µM; with UACC-62 melanoma it was 0.559 µM. For the same molecule, the GI50 was 0.848 µM in the assay on KM12 colon, 1.24 µM with MOLT-4 leukemia, 1.9 µM in the assay with EKVX NSCLC and 1.94 µM in the assay with HOP-92 NSCLC. For the same molecule, the TGI is 2.14 µM with HCT-15 colon; 3.24 µM in the assay on MALME-3M melanoma; 3.27 µM with BT-549 breast; 4.15 µM in the assay on SW-620 colon; 2.1 µM in the assay with COLO 205 colon; 1.8 µM with UACC-62 melanoma. The TGI in the assay on KM12 colon is 2.16 µM; in the assay on MOLT-4 leukemia, 3.96 µM; with EKVX NSCLC, 7.42 µM; with HOP-92 NSCLC, 6.33 µM.
For the molecule `COc1ccc(C(=O)c2cc(C)c(OC)c(C)c2)c(OC)c1N(C(=O)C(Cl)Cl)C(=O)C(Cl)Cl`, the GI50 was 0.0617 µM with HCT-15 colon; 0.129 µM in the assay on MALME-3M melanoma; 0.0607 µM in the assay on BT-549 breast; 0.0426 µM in the assay on SW-620 colon; 0.156 µM in the assay with COLO 205 colon; 0.0605 µM with UACC-62 melanoma. The GI50 is 0.0461 µM in the assay on KM12 colon, 0.122 µM with MOLT-4 leukemia, 0.0735 µM in the assay with EKVX NSCLC and 0.407 µM in the assay with HOP-92 NSCLC. Also, the TGI in the assay on HCT-15 colon was > 100 µM; in the assay with MALME-3M melanoma, > 100 µM; in the assay with BT-549 breast, 2.75 µM; with SW-620 colon, > 100 µM; in the assay with COLO 205 colon, 4.14 µM; in the assay on UACC-62 melanoma, > 100 µM. Moreover, the TGI in the assay on MOLT-4 leukemia was > 100 µM; with EKVX NSCLC, > 100 µM; in the assay with HOP-92 NSCLC, > 94 µM.
As for `NCCCC[C@@H]1NC(=O)[C@H]2CCCN2C(=O)[C@H](Cc2ccccc2)NC(=O)[C@H](Cc2ccccc2)CNC1=O`, the GI50 in the assay with HCT-15 colon, with MALME-3M melanoma, with BT-549 breast, with SW-620 colon, with COLO 205 colon and with UACC-62 melanoma was > 100 µM in each case. Further, the GI50 is > 100 µM with KM12 colon, > 100 µM with MOLT-4 leukemia, > 100 µM in the assay with EKVX NSCLC and 44.1 µM with HOP-92 NSCLC. Further, the TGI in the assay with HCT-15 colon, with MALME-3M melanoma, in the assay on BT-549 breast, in the assay on SW-620 colon, in the assay with COLO 205 colon and in the assay on UACC-62 melanoma was > 100 µM each time. Further, the TGI in the assay with KM12 colon, in the assay with MOLT-4 leukemia, in the assay on EKVX NSCLC and with HOP-92 NSCLC was > 100 µM each time.
In the case of `Clc1nc(Cl)c2ncn(Cc3cccc(COc4cccc(OCc5cccc(Cn6cnc7c(Cl)nc(Cl)nc76)c5)c4)c3)c2n1`, the GI50 with HCT-15 colon was 39 µM; in the assay on MALME-3M melanoma, > 100 µM; with BT-549 breast it was 14.1 µM; in the assay on SW-620 colon it was > 100 µM; in the assay on COLO 205 colon, > 100 µM; with UACC-62 melanoma, 60 µM. The GI50 is 34.6 µM in the assay on KM12 colon, 4.73 µM in the assay with MOLT-4 leukemia, > 100 µM with EKVX NSCLC and 15.6 µM in the assay with HOP-92 NSCLC. Besides, the TGI in the assay with HCT-15 colon, in the assay on MALME-3M melanoma, with BT-549 breast, in the assay on SW-620 colon, in the assay on COLO 205 colon and in the assay with UACC-62 melanoma was > 100 µM in each case. Moreover, the TGI with KM12 colon is > 100 µM; in the assay with MOLT-4 leukemia, > 100 µM; with EKVX NSCLC, > 100 µM; in the assay with HOP-92 NSCLC, 69.2 µM.
For the molecule `Cc1cc(C)c(C(=O)CC(=O)c2cccnc2)c(C)c1`, the GI50 is 3.36 µM in the assay on HCT-15 colon; 14.1 µM in the assay on MALME-3M melanoma; 2.25 µM in the assay with BT-549 breast; 4.72 µM with SW-620 colon; 8.01 µM in the assay with COLO 205 colon; 4.52 µM with UACC-62 melanoma. Also, the GI50 with KM12 colon was 8.01 µM; with MOLT-4 leukemia, 4.41 µM; in the assay with EKVX NSCLC, 3.97 µM; in the assay on HOP-92 NSCLC, 7.47 µM. Moreover, the TGI is > 100 µM in the assay with HCT-15 colon; > 100 µM in the assay on MALME-3M melanoma; 33.9 µM in the assay on BT-549 breast; > 100 µM with SW-620 colon; > 100 µM in the assay on COLO 205 colon; 41.8 µM in the assay with UACC-62 melanoma. The TGI in the assay with KM12 colon is > 100 µM; with MOLT-4 leukemia it was 38.4 µM; in the assay on EKVX NSCLC, 69.6 µM; in the assay with HOP-92 NSCLC, 57 µM.
Take `COC(=O)Nc1nc2ccc(Oc3ccc(NC(=O)Nc4ccccc4)cc3)cc2[nH]1`: the GI50 with HCT-15 colon is 0.135 µM; in the assay on MALME-3M melanoma, 0.14 µM; in the assay on BT-549 breast, 1.61 µM; in the assay on SW-620 colon, 0.101 µM; in the assay with COLO 205 colon it was 0.0835 µM; in the assay with UACC-62 melanoma, 0.0933 µM. Moreover, the GI50 with KM12 colon is 0.106 µM; in the assay with MOLT-4 leukemia it was 0.184 µM; in the assay on EKVX NSCLC, 2.44 µM; in the assay with HOP-92 NSCLC, 0.555 µM. Besides, the TGI was > 25 µM in the assay with HCT-15 colon; > 11.4 µM in the assay with MALME-3M melanoma; 11.8 µM in the assay with BT-549 breast; > 10.2 µM with SW-620 colon; 0.487 µM with COLO 205 colon; 4.5 µM in the assay with UACC-62 melanoma. Further, the TGI in the assay on KM12 colon was 4.87 µM; with MOLT-4 leukemia, > 10.3 µM; in the assay on EKVX NSCLC it was > 25 µM; in the assay with HOP-92 NSCLC, 11.1 µM.
Turning to `COc1ccc2c(c1)C=C([N+](=O)[O-])C(C1OC(C)(C)OC1C1COC(C)(C)O1)O2` (centres undefined), the TGI was 5.2 µM in the assay with HCT-15 colon; 6.15 µM in the assay on MALME-3M melanoma; 12.6 µM in the assay with BT-549 breast; 6.81 µM in the assay with SW-620 colon; 30 µM in the assay on COLO 205 colon; 3.72 µM in the assay with UACC-62 melanoma. In addition, the TGI in the assay with KM12 colon was 4.31 µM; in the assay with MOLT-4 leukemia, 6.51 µM; in the assay with EKVX NSCLC, 21.2 µM; in the assay with HOP-92 NSCLC, 37.8 µM.

(Values after PubChem BioAssay (NCI).)
